{"source": "patent US20230133958A1", "about": "“COMPOUNDS USEFUL IN MODULATING EGFR AND PI3K” (Mekanistic Therapeutics LLC, priority 2021, published 2023)", "test": "Metabolic stability in human liver microsomes", "type": "in vitro ADME", "conditions": "Human Liver Microsome (HLM)", "method": "Working solution: 5 µL of compound and control stock solution (10 mM in dimethyl sulfoxide (DMSO)) were diluted with 495 µL of acetonitrile (ACN) (intermediate solution concentration: 100 µM, 99% ACN)\nNADPH Cofactor Preparation: NADPH powder: β-Nicotinamide adenine dinucleotide phosphate reduced form, tetrasodium salt; NADPH 4 Na. The appropriate amount of NADPH powder was weighed and diluted into a 10 mM MgCl2 solution (working solution concentration: 10 unit/mL; final concentration in reaction system: 1 unit/mL)\nLiver Microsomes Preparation: The appropriate concentrations of microsome working solutions were prepared in 100 mM potassium phosphate buffer. Cold (4° C.) acetonitrile (ACN) containing 200 ng/mL tolbutamide and 200 ng/mL labetalol as internal standards (IS) was used as the stop solution\nAssay Procedure: Pre-warm empty ‘Incubation’ plates T60 and NCF60 for 10 minutes. Dilute liver microsomes to 0.56 mg/mL in 100 mM phosphate buffer. Transfer 445 µL microsome working solutions (0.56 mg/mL) into pre-warmed ‘Incubation’ plates T60 and NCF60, Then pre-incubate ‘Incubation’ plates T60 and NCF60 for 10 min at 37° C. with constant shaking. […]\nThe biological stability of the compounds of the invention can be measured by determining its ½ life in the presence microsomes. […]", "data": [{"smiles": "CS(=O)(=O)Nc1cc(-c2ccc3ncnc(Nc4cccc(Cl)c4F)c3c2)cnc1Cl", "note": "[Compound 6, N-[2-chloro-5-[4-(3-chloro-2-fluoro-anilino)quinazolin-6-yl]-3-pyridyl] methanesulfonamide]", "values": [{"measurement": "half-life at 1 µM", "value": "10 to 100", "unit": "min"}]}]}
